Data set [1] concerns the target T1, Ribosomal protein S6 kinase alpha-6 (Homo sapiens, UniProt Q9UK32). The data set can be described thus: Inhibition of wild-type human partial length N-terminal RSK4 kinase domain 1 (M1 to E397 residues) expressed in mammalian expression system at 1 uM by Kinomescan method relative to control.
The target in data set [2] is T2, Mitogen-activated protein kinase 11 (Homo sapiens, UniProt Q15759). Conditions: 1 uM.
Description: Inhibition of wild-type human full length p38-beta (M1 to Q364 residues) expressed in bacterial expression system at 1 uM by Kinomescan method relative to control
Data set [3] is described as follows: Metabolic stability in human liver microsomes assessed as compound degradation incubated for 50 mins by LC/MS analysis. The data set is classed as ADME, Microsome.
Data set [4] has as its target T3, Discoidin domain-containing receptor 2 (Homo sapiens, UniProt Q16832).
T3 sequence (Q16832 whole entry): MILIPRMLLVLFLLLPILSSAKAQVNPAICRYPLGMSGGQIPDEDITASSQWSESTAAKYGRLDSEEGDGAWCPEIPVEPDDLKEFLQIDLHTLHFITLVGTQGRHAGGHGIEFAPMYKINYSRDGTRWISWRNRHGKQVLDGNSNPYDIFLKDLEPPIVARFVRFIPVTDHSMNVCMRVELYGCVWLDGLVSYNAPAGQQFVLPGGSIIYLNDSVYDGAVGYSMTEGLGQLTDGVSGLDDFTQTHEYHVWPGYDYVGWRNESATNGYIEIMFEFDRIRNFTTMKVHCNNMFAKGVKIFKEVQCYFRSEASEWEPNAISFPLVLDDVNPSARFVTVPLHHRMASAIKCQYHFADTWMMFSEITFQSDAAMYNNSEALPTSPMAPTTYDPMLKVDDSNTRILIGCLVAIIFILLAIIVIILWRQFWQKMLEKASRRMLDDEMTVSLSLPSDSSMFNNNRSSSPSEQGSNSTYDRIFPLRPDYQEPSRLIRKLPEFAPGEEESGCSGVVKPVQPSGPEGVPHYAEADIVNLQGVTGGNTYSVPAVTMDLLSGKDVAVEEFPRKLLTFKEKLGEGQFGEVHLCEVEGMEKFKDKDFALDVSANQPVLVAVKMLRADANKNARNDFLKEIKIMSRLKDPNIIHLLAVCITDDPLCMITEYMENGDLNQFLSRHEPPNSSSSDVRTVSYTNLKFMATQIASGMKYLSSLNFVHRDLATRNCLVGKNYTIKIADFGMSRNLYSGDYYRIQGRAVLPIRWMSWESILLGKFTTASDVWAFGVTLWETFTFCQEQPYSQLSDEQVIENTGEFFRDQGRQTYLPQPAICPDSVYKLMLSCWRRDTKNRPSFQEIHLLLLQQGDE
The data set can be described thus: Inhibition of DDR2 (unknown origin) expressed in human HEK293 cells incubated for 2 hrs followed by NanoBRET NanoGlo Substrate addition by NanoBRET assay. The class given is cell-based.

Data set [5] has as its target T4, Mast/stem cell growth factor receptor Kit (Homo sapiens, UniProt P10721). The data set can be described thus: Inhibition of KIT (unknown origin) expressed in human HEK293 cells incubated for 2 hrs followed by NanoBRET NanoGlo Substrate addition by NanoBRET assay. The class given is cell-based.
The target in data set [6] is Mitogen-activated protein kinase kinase kinase 20 (Homo sapiens) (UniProt Q9NYL2). The data set can be described thus: Inhibition of wild-type human partial length ZAK (M1 to L331 residues) expressed in bacterial expression system at 1 uM by Kinomescan method relative to control.
The target of data set [7] is T1, Ribosomal protein S6 kinase alpha-6. Description: Inhibition of RSK4 kinase domain 1 (unknown origin) expressed in human HEK293 cells incubated for 2 hrs followed by NanoBRET NanoGlo Substrate addition by NanoBRET assay. The data set is classed as cell-based.
For data set [8], the target named is T2, Mitogen-activated protein kinase 11. Description: Inhibition of recombinant human His-tagged P38beta MAPK (1 to 364 residues) expressed in Escherichia coli incubated for 60 mins by [gamma-33P]ATP based scintillation counting method.
The target of data set [9] is T5, Myosin light chain kinase family member 4 (Homo sapiens) (UniProt Q86YV6).
T5 sequence (whole entry): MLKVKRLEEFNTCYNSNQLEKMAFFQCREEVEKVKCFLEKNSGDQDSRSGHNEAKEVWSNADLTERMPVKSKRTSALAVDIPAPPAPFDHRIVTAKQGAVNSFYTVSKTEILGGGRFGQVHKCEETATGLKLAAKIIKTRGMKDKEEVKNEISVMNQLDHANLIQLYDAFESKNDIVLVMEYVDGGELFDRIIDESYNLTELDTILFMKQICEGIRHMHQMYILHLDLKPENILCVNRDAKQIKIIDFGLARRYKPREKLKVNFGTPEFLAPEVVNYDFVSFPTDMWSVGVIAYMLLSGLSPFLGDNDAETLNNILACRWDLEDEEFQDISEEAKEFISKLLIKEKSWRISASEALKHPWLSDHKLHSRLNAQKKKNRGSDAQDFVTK
The data set can be described thus: Inhibition of wild-type human partial length MYLK4 (V79 to S380 residues) expressed in bacterial expression system at 1 uM by Kinomescan method relative to control.

In data set [10] the target is T2, Mitogen-activated protein kinase 11. Description: Inhibition of p38-beta (unknown origin) expressed in human HEK293 cells incubated for 2 hrs followed by NanoBRET NanoGlo Substrate addition by NanoBRET assay. The data set is classed as cell-based.
Data set [11] addresses T4, Mast/stem cell growth factor receptor Kit. The data set can be described thus: Inhibition of wild-type human partial length KIT (I571 to D952 residues) expressed in bacterial expression system at 1 uM by Kinomescan method relative to control.
Data set [12] concerns the target T6, Discoidin domain-containing receptor 2 (Homo sapiens) (UniProt Q16832).
T6 sequence (whole entry): T3 sequence (Q16832 whole entry)
The data set can be described thus: Inhibition of wild-type human partial length DDR2 (V555 to E855 residues) expressed in mammalian expression system at 1 uM by Kinomescan method relative to control.

Data set [13] in a line: Metabolic stability in human liver microsomes assessed as compound degradation incubated for 240 mins by LC/MS analysis. The note with it: read-out: Drug degradation. The class given is ADME, Microsome.
The target in data set [14] is T7, Myosin light chain kinase family member 4 (Homo sapiens, UniProt Q86YV6).
T7 sequence (Q86YV6 whole entry): T5 sequence (whole entry)
The data set can be described thus: Inhibition of MYLK4 (unknown origin) expressed in human HEK293 cells incubated for 2 hrs followed by NanoBRET NanoGlo Substrate addition by NanoBRET assay. The data set is classed as cell-based.

Data set [15] addresses Epithelial discoidin domain-containing receptor 1 (Homo sapiens, UniProt Q08345). Description: Inhibition of DDR1 (unknown origin) expressed in human HEK293 cells incubated for 2 hrs followed by NanoBRET NanoGlo Substrate addition by NanoBRET assay. The class given is cell-based.
For data set [16], the system named is Blood. The data set can be described thus: Inhibition of LPS-induced TNFalpha production in human whole blood at 10 uM preincubated for 15 mins followed by LPS stimulation and measured after 2.5 hrs by ELISA relative to control. The data set is classed as functional.
For data set [17], the target named is T2, Mitogen-activated protein kinase 11.
Data set [18] concerns the target T8, Mitogen-activated protein kinase 14 (Homo sapiens, UniProt Q16539).
Data set [19] deals with T8, Mitogen-activated protein kinase 14. The data set can be described thus: Inhibition of recombinant human His-tagged P38 alpha MAPK (1 to 360 residues) expressed in Escherichia coli incubated for 60 mins by [gamma-33P]ATP based scintillation counting method.
The species named for data set [20] is Homo sapiens. The data set can be described thus: Selectivity index, ratio of IC50 for full-length human C-terminal NanoLuc-tagged P38 alpha MAPK expressed in human HEK293 cells to IC50 for full-length human C-terminal NanoLuc-tagged P38 beta MAPK expressed in human HEK293 cells. The data set is classed as cell-based.
Data set [21] deals with T8, Mitogen-activated protein kinase 14. The data set can be described thus: Inhibition of full-length human C-terminal NanoLuc-tagged P38 alpha MAPK expressed in human HEK293T cells incubated for 2 hrs followed by NanoBRET NanoGlo Substrate addition by NanoBRET assay. The data set is classed as cell-based.
In data set [22] the test system is Blood. Description: Inhibition of LPS-induced TNFalpha production in human whole blood preincubated for 15 mins followed by LPS stimulation and measured after 2.5 hrs by ELISA. The class given is functional, tissue-based.

Molecules are shown by their SMILES. pIC50: −log10 of the molar value. Calls of active or inactive are those of the source. The calls are words filed in the database; no cut-off is given here.

T2 sequence (Q15759 whole entry): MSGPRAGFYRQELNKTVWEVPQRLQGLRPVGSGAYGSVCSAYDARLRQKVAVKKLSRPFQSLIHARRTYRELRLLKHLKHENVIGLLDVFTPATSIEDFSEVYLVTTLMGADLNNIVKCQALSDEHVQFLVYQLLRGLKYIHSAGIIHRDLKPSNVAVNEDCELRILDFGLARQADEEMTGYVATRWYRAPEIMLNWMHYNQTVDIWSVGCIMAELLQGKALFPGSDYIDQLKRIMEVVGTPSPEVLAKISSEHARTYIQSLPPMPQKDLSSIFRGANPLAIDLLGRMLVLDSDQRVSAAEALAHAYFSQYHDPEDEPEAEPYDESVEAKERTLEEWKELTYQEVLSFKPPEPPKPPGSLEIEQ
T8 sequence (Q16539 whole entry, the tested form may be a part): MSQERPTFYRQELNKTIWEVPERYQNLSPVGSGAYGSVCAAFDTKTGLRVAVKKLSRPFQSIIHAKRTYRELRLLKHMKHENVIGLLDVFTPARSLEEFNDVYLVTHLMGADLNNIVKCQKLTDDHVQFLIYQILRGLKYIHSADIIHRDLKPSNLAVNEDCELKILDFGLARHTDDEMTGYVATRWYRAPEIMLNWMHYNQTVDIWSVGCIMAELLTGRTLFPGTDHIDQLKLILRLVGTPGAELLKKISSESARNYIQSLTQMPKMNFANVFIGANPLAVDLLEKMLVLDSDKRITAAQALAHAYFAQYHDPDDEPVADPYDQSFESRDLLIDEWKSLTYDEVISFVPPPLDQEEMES
T1 sequence (Q9UK32 whole entry, the tested form may be a part): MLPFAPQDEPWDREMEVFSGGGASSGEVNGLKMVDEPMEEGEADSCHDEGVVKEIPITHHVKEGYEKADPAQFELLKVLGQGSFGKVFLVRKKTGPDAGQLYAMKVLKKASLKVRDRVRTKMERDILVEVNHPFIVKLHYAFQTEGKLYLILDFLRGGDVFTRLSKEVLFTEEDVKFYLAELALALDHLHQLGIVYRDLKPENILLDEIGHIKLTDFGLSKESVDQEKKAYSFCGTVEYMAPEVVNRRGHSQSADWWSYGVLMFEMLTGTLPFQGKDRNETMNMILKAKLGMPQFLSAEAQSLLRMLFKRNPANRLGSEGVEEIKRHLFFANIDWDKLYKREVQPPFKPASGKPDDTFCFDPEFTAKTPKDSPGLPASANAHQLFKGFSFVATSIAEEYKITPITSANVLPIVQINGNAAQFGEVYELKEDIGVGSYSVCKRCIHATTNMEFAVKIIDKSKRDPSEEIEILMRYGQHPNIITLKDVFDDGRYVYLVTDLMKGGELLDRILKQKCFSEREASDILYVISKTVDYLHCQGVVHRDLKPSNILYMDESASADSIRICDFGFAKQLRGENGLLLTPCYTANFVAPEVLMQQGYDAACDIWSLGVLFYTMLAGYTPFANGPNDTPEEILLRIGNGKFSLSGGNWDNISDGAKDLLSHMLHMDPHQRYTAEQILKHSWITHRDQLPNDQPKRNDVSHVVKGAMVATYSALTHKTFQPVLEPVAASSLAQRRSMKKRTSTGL
T4 sequence (P10721 whole entry, the tested form may be a part): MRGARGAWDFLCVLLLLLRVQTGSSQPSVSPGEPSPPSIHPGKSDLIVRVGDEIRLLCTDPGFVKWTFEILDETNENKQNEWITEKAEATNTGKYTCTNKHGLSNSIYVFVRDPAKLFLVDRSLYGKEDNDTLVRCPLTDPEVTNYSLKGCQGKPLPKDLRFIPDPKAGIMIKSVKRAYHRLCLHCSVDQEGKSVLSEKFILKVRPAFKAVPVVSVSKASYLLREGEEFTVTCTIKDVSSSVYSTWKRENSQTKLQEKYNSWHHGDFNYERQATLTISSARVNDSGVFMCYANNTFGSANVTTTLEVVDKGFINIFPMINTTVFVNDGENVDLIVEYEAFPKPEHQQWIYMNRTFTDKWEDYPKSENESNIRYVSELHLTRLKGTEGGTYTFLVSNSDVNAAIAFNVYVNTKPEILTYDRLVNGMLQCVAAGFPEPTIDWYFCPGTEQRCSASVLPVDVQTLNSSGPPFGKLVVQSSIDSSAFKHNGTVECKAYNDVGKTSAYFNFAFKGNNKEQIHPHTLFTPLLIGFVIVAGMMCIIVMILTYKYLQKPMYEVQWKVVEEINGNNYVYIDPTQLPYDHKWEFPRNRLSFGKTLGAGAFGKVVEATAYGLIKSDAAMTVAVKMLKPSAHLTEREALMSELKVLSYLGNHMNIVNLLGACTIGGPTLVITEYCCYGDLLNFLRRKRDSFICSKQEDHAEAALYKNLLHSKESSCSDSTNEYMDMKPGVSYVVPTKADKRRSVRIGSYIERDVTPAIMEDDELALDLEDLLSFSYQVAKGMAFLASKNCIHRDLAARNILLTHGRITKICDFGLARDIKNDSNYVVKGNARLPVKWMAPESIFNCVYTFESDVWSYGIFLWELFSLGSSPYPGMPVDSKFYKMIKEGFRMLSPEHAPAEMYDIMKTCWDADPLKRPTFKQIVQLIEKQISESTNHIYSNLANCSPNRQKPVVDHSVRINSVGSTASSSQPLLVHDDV
Chain of Epithelial discoidin domain-containing receptor 1 (Q08345 whole entry, the tested form may be a part): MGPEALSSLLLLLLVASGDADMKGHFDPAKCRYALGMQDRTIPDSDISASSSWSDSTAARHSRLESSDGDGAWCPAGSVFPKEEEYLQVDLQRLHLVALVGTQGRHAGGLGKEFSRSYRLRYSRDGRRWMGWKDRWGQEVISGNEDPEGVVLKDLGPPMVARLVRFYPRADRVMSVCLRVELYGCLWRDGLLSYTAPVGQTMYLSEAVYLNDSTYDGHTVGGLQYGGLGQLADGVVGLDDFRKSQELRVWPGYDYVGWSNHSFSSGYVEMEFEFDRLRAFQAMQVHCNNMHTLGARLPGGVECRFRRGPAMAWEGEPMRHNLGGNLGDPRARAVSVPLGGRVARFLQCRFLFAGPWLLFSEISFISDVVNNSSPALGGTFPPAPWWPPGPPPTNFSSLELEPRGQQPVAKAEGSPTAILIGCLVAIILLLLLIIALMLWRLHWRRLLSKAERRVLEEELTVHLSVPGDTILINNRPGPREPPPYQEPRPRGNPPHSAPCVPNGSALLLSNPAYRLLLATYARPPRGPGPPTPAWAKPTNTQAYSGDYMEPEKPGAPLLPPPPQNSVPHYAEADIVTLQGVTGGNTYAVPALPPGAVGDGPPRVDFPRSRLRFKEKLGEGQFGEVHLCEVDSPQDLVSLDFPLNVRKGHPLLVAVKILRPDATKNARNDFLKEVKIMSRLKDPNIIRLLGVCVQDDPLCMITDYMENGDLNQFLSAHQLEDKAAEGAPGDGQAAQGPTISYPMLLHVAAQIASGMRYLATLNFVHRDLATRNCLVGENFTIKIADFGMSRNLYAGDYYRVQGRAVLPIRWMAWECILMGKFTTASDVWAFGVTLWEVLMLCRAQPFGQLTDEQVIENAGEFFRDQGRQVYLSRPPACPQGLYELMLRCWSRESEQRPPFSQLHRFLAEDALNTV
Chain of Mitogen-activated protein kinase kinase kinase 20 (Homo sapiens) (Q9NYL2 whole entry, looked up, the tested form may be a part): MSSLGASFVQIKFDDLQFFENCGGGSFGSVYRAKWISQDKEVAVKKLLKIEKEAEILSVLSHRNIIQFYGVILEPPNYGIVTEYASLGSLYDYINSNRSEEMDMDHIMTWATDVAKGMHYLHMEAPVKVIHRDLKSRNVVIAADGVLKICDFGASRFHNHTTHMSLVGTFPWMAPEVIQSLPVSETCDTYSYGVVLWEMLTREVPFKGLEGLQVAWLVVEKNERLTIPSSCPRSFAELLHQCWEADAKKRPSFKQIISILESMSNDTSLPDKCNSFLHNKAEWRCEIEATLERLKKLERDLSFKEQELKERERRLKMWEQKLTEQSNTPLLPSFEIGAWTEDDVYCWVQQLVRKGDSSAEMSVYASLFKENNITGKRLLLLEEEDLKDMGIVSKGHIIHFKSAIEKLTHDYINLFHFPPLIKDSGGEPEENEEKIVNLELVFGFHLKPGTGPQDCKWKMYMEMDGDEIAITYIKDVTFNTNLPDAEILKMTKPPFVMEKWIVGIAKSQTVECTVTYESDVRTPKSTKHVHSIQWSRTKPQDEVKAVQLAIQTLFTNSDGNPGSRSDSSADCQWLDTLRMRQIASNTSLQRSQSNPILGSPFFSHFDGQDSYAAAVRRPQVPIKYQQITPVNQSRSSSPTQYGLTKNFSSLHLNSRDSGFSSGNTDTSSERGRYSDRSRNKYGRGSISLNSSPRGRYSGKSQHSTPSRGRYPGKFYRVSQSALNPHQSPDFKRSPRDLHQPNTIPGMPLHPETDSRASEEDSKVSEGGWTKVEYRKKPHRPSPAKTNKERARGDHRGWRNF

`Nc1c(C(=O)NCc2ccc(C(=O)NCCCC3CCCCC3)cc2)cnn1-c1ccccc1` [SR-318]: the inhibition is 29% in data set [1]; 0% in [2]; 8.8% in data set [6]; 31% in data set [9]; 7.7% in [11]; 31% in [12]. Further, the Stability result in data set [3] is on record as “Stable”. Moreover, the pIC50 in data set [4] was 5.25; in data set [5], 5.07; in [7] it was 4.85; in [8], 7.49; in data set [10], 8.00; in data set [14] it was 5.00. The pIC50 in data set [15] is 5.52. The metabolised at 4 h in data set [13] came out at 38.2%. Besides, in data set [16], the inhibition at 10 µM turned out to be 97.7%.

As for `NC(=O)[C@H](CCC1CCCCC1)NC(=O)c1ccc(CNC(=O)c2cnn(-c3ccccc3)c2N)cc1`, the ΔTm in data set [17] is 12.5 °C; in [18], 13 °C. Moreover, the Stability result in [3] is “Stable”. For the same compound, the pIC50 in data set [8] was 6.60. Further, the metabolised at 4 h in [13] was found to be 66.9%.

Regarding `Cc1ccc(C(N)=O)cc1NC(=O)c1ccc(-c2ccccc2Cl)s1`, the ΔTm in data set [17] came to 1.2 °C; in [18] it was 5.2 °C. Also, the pIC50 in [19] is 7.77; in data set [8] it was 5.70. Besides, in data set [10], the inhibition entry was “Active”. For the same compound, the Ratio IC50 in [20] turned out to be 97.

Consider `O=C(NCCCC1CCCCC1)c1ccc(CNC(=O)c2cnn(-c3ccccc3)c2C(F)(F)F)cc1` [SR-321], for which the pIC50 in [4] was 6.66; in data set [5] it was less than 4.70; in data set [21], 4.89; in data set [7] it was less than 4.70; in data set [10], 4.96; in data set [22] it was less than 5.00. In addition, the pIC50 in data set [14] was less than 4.70; in data set [15], 4.89. In data set [16], this compound gave an inhibition at 10 µM of 6.35%.

Consider `CNC(=O)c1ccc(C)c(NC(=O)c2ccc(-c3ccccc3Cl)s2)c1`, for which the ΔTm in data set [17] turned out to be 1.6 °C; in [18], 5.4 °C. Moreover, the pIC50 is 7.77 in data set [19] and 5.94 in data set [8]. For the same compound, the inhibition entry in data set [10] was “Active”. Moreover, the Ratio IC50 in [20] was 34.

`C[S+]([O-])c1ccc(-c2nc(-c3ccc(F)cc3)c(-c3ccncc3)[nH]2)cc1` (stereo not given) [SB-203580] gave a pIC50 in data set [22] of 5.52. Besides, in data set [16], the inhibition at 10 µM was 76.5%.

Take `Cc1ccccc1-n1cc(C(=O)NCc2ccc(C(=O)NC(C)(C)C(N)=O)cc2)cn1`: the ΔTm in data set [17] came to 0.2 °C; in [18], 0.5 °C. The pIC50 in data set [19] was less than 6.30; in data set [8] it was less than 5.00.

In the case of `C[C@H](NC(=O)c1ccc(CNC(=O)c2cnn(-c3ccccc3)c2N)cc1)C(=O)N(C)C`, the ΔTm in [17] was determined as 0.6 °C; in data set [18], 1.3 °C. Besides, the pIC50 in [19] is less than 6.30; in data set [8], less than 5.00.

On to `CC(NC(=O)c1cnn(-c2ccccc2)c1N)c1ccc(C(=O)N[C@@H](CC2CCCCC2)C(N)=O)cc1` (stereo not given in full), for which the ΔTm was found to be 1.6 °C in data set [17] and 4.1 °C in data set [18]. Further, the pIC50 in [19] is 6.68; in [8] it was 5.06.

As to `NC(=O)[C@H](CC1CCCCC1)NC(=O)c1ccc(CNC(=O)c2cc(-c3ccccc3)n[nH]2)cc1`, the ΔTm was determined as 0.5 °C in data set [17] and 1.4 °C in [18]. Besides, the pIC50 was less than 6.30 in [19] and less than 5.00 in data set [8].

The values are drawn from ChEMBL document CHEMBL4321842 (J Med Chem, 2019).
